Experimental data: patent US20240109891A1, “NOVEL SUBSTITUTED TRICYCLIC AZA-HETEROCYCLES AS SOS1 INHIBITORS” (Viva Star Biosciences (Suzhou) Co., Ltd., priority 2021, published 2024)
pIC50: −log10 of the molar value.

How the values were obtained:
[1] = target: T1, KRAS G12C and SOS1 proteins (Homo sapiens, UniProt Q07889); assay: KRAS-G12C/SOS1 binding assay (HTRF); conditions: Tag1-SOS1 / Tag2-KRAS G12C, 10 μM GTP
T1 construct: purchased Cisbio 63ADK000CB16PEG
T1 sequence (Q07889 1-1333): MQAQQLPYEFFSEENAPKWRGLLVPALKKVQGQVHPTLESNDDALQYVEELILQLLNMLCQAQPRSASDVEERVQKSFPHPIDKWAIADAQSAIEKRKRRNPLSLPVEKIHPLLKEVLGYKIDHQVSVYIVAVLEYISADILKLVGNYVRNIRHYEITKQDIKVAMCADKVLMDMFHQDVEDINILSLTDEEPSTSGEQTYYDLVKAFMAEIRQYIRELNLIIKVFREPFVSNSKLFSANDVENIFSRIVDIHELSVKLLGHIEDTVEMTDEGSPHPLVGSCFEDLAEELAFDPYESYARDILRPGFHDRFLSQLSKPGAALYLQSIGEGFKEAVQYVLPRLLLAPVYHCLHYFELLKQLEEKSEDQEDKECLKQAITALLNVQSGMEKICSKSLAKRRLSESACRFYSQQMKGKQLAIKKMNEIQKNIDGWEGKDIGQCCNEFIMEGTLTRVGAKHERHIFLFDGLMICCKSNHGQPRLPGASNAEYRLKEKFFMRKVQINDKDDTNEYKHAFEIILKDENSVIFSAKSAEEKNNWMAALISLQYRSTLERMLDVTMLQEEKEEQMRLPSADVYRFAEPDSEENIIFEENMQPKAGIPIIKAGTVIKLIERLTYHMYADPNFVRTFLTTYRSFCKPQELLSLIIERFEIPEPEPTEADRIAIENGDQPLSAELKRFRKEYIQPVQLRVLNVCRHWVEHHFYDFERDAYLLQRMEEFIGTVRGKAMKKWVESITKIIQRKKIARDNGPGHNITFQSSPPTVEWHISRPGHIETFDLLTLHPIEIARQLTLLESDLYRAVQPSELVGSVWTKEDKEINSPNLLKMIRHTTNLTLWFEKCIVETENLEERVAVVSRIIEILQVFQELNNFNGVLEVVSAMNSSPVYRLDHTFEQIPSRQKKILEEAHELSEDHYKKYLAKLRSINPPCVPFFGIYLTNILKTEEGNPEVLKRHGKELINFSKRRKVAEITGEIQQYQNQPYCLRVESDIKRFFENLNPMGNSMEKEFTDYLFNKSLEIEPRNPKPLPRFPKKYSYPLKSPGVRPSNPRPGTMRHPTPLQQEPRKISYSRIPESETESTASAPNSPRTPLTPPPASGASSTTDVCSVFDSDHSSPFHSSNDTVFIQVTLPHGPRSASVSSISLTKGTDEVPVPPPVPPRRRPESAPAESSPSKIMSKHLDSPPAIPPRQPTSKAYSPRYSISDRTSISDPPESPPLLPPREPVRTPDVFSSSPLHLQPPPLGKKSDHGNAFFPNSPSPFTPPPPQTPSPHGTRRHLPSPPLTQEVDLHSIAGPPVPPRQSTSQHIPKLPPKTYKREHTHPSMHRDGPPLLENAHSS
Procedure: KRAS-WT (or G12C/G12D/G12V)/SOS1 Binding Assay
Low IC50 values are indicative of high potency of the SOS1 inhibitor compounds in this assay setting.
The KRAS-WT (or G12C/G12D/G12V)/SOS1 binding assay is performed using an assay kit (Cisbio, Cat #63ADK000CB15PEG or 63ADK000CB16PEG/63ADK000CB17PEG/63ADK000CB18PEG) according to the procedure recommended by the manufacturer. • 1) Thaw and prepare the working solution of Tag1-SOS1 protein and Tag2-KRAS-WT (or G12C/G12D/G12V) protein with final concentration of 10 μM GTP (Sigma, Cat #V900868). • 2) Thaw and prepare the working solution of anti-Tag1-Tb^3+ anti-Tag2-XL665. • 3) Dispense 2 μL of serially diluted compound, 4 μL of Tag1-SOS1 protein and 4 μL of Tag2-KRAS-WT (or G12C/G12D/G12V) protein with GTP into a ProxiPlate-384 Plus, white 384-shallow well microplate (PerkinElmer, Cat #6008280). • 4) Incubate the plate for 15 minutes at room temperature. • 5) Dispense 10 μL of pre-mixed anti-Tag1-Tb^3+ and anti-Tag2-XL665 into the plate. • 6) Seal the plate and incubate for 2 hours at room temperature. • 7) Remove the plate sealer and read on PHERAstar FS (BMG LABTECH, PHERAstar FS). • 8) Calculate the ratio of the acceptor and donor emission signals for each individual well using the following equation.
[formula] • 9) IC50 values are fitted and calculated by HTRF signal values and log of compound concentrations to nonlinear regression [Log (inhibitor) vs. Response−Variable Slope (four parameters)] using the GraphPad Prism 8.0.

[2] = target: T2, KRAS-WT and SOS1 proteins (Homo sapiens, UniProt Q07889); assay: KRAS-WT/SOS1 binding assay (HTRF); conditions: Tag1-SOS1 / Tag2-KRAS-WT, 10 μM GTP, read-out: Activity Data in Kras: SOS1 Assay, Wild Type
T2 construct: purchased Cisbio 63ADK000CB15PEG
T2 sequence (Q07889 1-1333): T1 sequence (Q07889 1-1333)

[3] = target: T3, KRAS G12D and SOS1 proteins (Homo sapiens, UniProt Q07889); assay: KRAS-G12D/SOS1 binding assay (HTRF); conditions: Tag1-SOS1 / Tag2-KRAS G12D, 10 μM GTP
T3 construct: purchased Cisbio 63ADK000CB17PEG
T3 sequence (Q07889 1-1333): T1 sequence (Q07889 1-1333)

Row | Compound | pIC50 [1] | pIC50 [2] | pIC50 [3]
1 | Cc1nc(N[C@H](C)c2cccc3c2CCC3(F)F)c2cc(-c3ccc(=O)n(C)c3)c3nncn3c2n1 [Example 3, (R)-5-(4-((1-(1,1-difluoro-2,3-dihydro-1H-inden-4-yl)ethyl)amino)-2-methyl-[1,2,4]triazolo[4′,3′:1,6]pyrido[2,3-d]pyrimidin-6-yl)-1-methylpyridin-2(1H)-one] | 6.30 to 7.00 | – | –
2 | Cc1nc(N[C@H](C)c2cccc(C(F)F)c2F)c2cc(-c3ccc(=O)n(C)c3)c3nncn3c2n1 [Example 4, (R)-5-(4-((1-(3-(difluoromethyl)-2-fluorophenyl)ethyl)amino)-2-methyl-[1,2,4]triazolo[4′,3′:1,6]pyrido[2,3-d]pyrimidin-6-yl)-1-methylpyridin-2(1H)-one] | > 7.00 | – | –
3 | Cc1nc(N[C@H](C)c2cccc(C(F)F)c2F)c2cc(C3CCOCC3)c3nncn3c2n1 [Example 5, (R)-N-(1-(3-(difluoromethyl)-2-fluorophenyl)ethyl)-2-methyl-6-(tetrahydro-2H-pyran-4-yl)-[1,2,4]triazolo[4′,3′:1,6]pyrido[2,3-d]pyrimidin-4-amine] | > 7.00 | – | –
4 | Cc1nc(N[C@H](C)c2cccc(C(F)(F)CO)c2)c2cc(-c3ccc(=O)n(C)c3)c3nncn3c2n1 [Example 6, (R)-5-(4-((1-(3-(1,1-difluoro-2-hydroxyethyl)phenyl)ethyl)amino)-2-methyl-[1,2,4]triazolo[4′,3′:1,6]pyrido[2,3-d]pyrimidin-6-yl)-1-methylpyridin-2(1H)-one] | > 7.00 | – | –
5 | COc1cc2c(cc1-c1ccc(=O)n(C)c1)c(N[C@H](C)c1cccc(C(F)F)c1F)nc1ccnn12 [Example 48, (R)-5-(5-((1-(3-(difluoromethyl)-2-fluorophenyl)ethyl)amino)-8-methoxypyrazolo[1,5-a]quinazolin-7-yl)-1-methylpyridin-2(1H)-one] | 6.30 to 7.00 | – | –
6 | C[C@@H](Nc1nc2ccnn2c2cc(=O)n(C3CCN(S(C)(=O)=O)CC3)cc12)c1cccc(C(F)(F)CO)c1 [Example 67, (R)-5-((1-(3-(1,1-difluoro-2-hydroxyethyl)phenyl)ethyl)amino)-7-(1-(methylsulfonyl)piperidin-4-yl)pyrazolo[1,5-a]pyrido[3,4-e]pyrimidin-8(7H)-one] | – | > 7.00 | 6.30 to 7.00
7 | C[C@@H](Nc1nc2ccnn2c2cc(=O)n(C3(C(F)F)CC3)cc12)c1cccc(C(F)(F)CO)c1 [Example 68, (R)-5-((1-(3-(1,1-difluoro-2-hydroxyethyl)phenyl)ethyl)amino)-7-(1-(difluoromethyl)cyclopropyl)pyrazolo[1,5-a]pyrido[3,4-e]pyrimidin-8(7H)-one] | – | > 7.00 | > 7.00
8 | C[C@@H](Nc1nc2ccnn2c2cc(=O)n([C@H]3CCOC3)cc12)c1cccc(C(F)(F)F)c1 [Example 69, 7-((S)-tetrahydrofuran-3-yl)-5-(((R)-1-(3-(trifluoromethyl)phenyl)ethyl)amino)pyrazolo[1,5-a]pyrido[3,4-e]pyrimidin-8(7H)-one] | – | 6.30 to 7.00 | 6.30 to 7.00
9 | C[C@@H](Nc1nc2ccnn2c2cc(=O)n([C@H]3CCOC3)cc12)c1cc(N)cc(C(F)(F)F)c1 [Example 70, 5-(((R)-1-(3-amino-5-(trifluoromethyl)phenyl)ethyl)amino)-7-((S)-tetrahydrofuran-3-yl)pyrazolo[1,5-a]pyrido[3,4-e]pyrimidin-8(7H)-one] | – | > 7.00 | > 7.00
10 | C[C@@H](Nc1nc2ccnn2c2cc(=O)n([C@H]3CCOC3)cc12)c1cccc2c1CCC2(F)F [Example 71, 5-(((R)-1-(1,1-difluoro-2,3-dihydro-1H-inden-4-yl)ethyl)amino)-7-((S)-tetrahydrofuran-3-yl)pyrazolo[1,5-a]pyrido[3,4-e]pyrimidin-8(7H)-one] | – | > 7.00 | > 7.00
11 | C[C@@H](Nc1nc2ccnn2c2cc(=O)n([C@H]3CCOC3)cc12)c1cccc(C(F)(F)CO)c1 [Example 72, 5-(((R)-1-(3-(1,1-difluoro-2-hydroxyethyl)phenyl)ethyl)amino)-7-((S)-tetrahydrofuran-3-yl)pyrazolo[1,5-a]pyrido[3,4-e]pyrimidin-8(7H)-one] | – | > 7.00 | > 7.00
12 | C[C@@H](Nc1nc2ccnn2c2cc(=O)n(C3CC(F)(F)C3)cc12)c1cc(F)cc(C(F)(F)CO)c1 [Example 73, (R)-5-((1-(3-(1,1-difluoro-2-hydroxyethyl)-5-fluorophenyl)ethyl)amino)-7-(3,3-difluorocyclobutyl)pyrazolo[1,5-a]pyrido[3,4-e]pyrimidin-8(7H)-one] | – | > 7.00 | > 7.00
13 | CNCc1ccccc1-c1ccc([C@@H](C)Nc2nc3ccnn3c3cc(=O)n(C4(C)CC4)cc23)s1 [Example 74, 8-{[(1R)-1-(5-{2-[(methylamino)methyl]phenyl}thiophen-2-yl)ethyl]amino}-11-(1-methylcyclopropyl)-2,3,7,11-tetraazatricyclo[7.4.0.0^{2,6}]trideca-1(13),3,5,7,9-pentaen-12-one] | – | > 7.00 | > 7.00
14 | CC(=O)N1CCC(n2cc3c(N[C@H](C)c4cccc(C(F)(F)CO)c4)nc4ccnn4c3cc2=O)CC1 [Example 75, 11-(1-acetylpiperidin-4-yl)-8-{[(1R)-1-[3-(1,1-difluoro-2-hydroxyethyl)phenyl]ethyl]amino}-2,3,7,11-tetraazatricyclo[7.4.0.0^{2,6}]trideca-1(13),3,5,7,9-pentaen-12-one] | – | > 7.00 | > 7.00
15 | C[C@@H](Nc1nc2ccnn2c2cc(=O)n(C3CCN(C)CC3)cc12)c1cccc(C(F)(F)CO)c1 [Example 76, (R)-5-((1-(3-(1,1-difluoro-2-hydroxyethyl)phenyl)ethyl)amino)-7-(1-methylpiperidin-4-yl)pyrazolo[1,5-a]pyrido[3,4-e]pyrimidin-8(7H)-one] | – | > 7.00 | > 7.00
16 | C[C@@H](Nc1nc2ccnn2c2cc(=O)n(C3CCNCC3)cc12)c1cccc(C(F)(F)CO)c1 [Example 77, 8-{[(1R)-1-[3-(1,1-difluoro-2-hydroxyethyl)phenyl]ethyl]amino}-11-(piperidin-4-yl)-2,3,7,11-tetraazatricyclo[7.4.0.0^{2,6}]trideca-1(13),3,5,7,9-pentaen-12-one] | – | > 7.00 | > 7.00
17 | C[C@@H](Nc1nc2c(F)cnn2c2cc(=O)n(C3CC(F)(F)C3)cc12)c1cccc(C(F)(F)CO)c1 [Example 78, (R)-5-((1-(3-(1,1-difluoro-2-hydroxyethyl)phenyl)ethyl)amino)-7-(3,3-difluorocyclobutyl)-3-fluoropyrazolo[1,5-a]pyrido[3,4-e]pyrimidin-8(7H)-one] | – | > 7.00 | > 7.00
